The values below come from patent US4596710A, “Gallium chloride as a new anti-cancerous drug” (priority 1981, dated 1986).

For series [1] the following is noted: cited from earlier work.
The conditions of series [2]: Anghileri 1973; cited from earlier work.
A short description of series [3]: Clinical and biological tolerance in patients. To be noted: Adriamycine 50 mg + 5-fluoro-uracil 900 mg + Endoxan 900 mg; before gallium chloride; alcoholic patient. On the procedure: Mrs. […] Post-operative chemotherapy (5-fluoro-uracil and endoxan) was then effected up to April 1979. At that time, […] underwent a second operation with excision of the remaining cervix and omentectomy. […] Cobalt therapy was then carried out from Nov. 5th, 1979 to Feb. 5th, 1980 on the abdomen, pelvis and diaphragm cupolas, then further chemotherapy (hexamethylmelamine) from August to October 1980. […] Treatment by gallium chloride started on Nov. 1 st, 1980 at the posology of 300 mg per day per os in three doses of 100 mg. […] An echotomograph on Dec. […] A third echotomograph was made on Jan. […] On Mar.
The treatment by gallium chloride was started on May 15th, 1981, at the posology of 600 mg/24 hours up to Sept. 20th, 1981, in association with a heparinotherapy at mini-doses. This heparinotherapy had been prescribed to prevent a phlebitis or pulmonary embolism following the surgical operation of April 1981 and had not been interrupted in order not to provoke the phenomenon of tumoral flare-up. [Calciparin (heparin calcium salt) 0.2 ml, 3 times per day by sub-cutaneous route]. […] On Sept. […] This was the case. . . […] 29th, 1981. […] Up to Nov. […] It was from Sept.
HOT... […] , was operated on May 14th, 1981 for an adenocarcinoma of the colon. […] An almost total colectomy was carried out, leaving 20 cm of sigmoid and a resection of the small bowel over a length of 15 cm. […] On Oct. […] An exploratory laparotomy was made on Nov. […] 7th, 1982.
Gallium chloride therapy was started on Sept.

Regarding `O=[N+]([O-])[O-].O=[N+]([O-])[O-].O=[N+]([O-])[O-].[Ga+3]` [gallium nitrate], the renal toxicity result in series [1] (human therapeutics) is reported as “excessive renal toxicity”. Further, the “results of tests in human therapeutics” value in series [1] (in vivo) is reported as “minor results”. As for gallium, the “displacement of magnesium from the cell” value in series [2] is given as “capable of displacing magnesium from the cell”. Regarding `O=P1(N(CCCl)CCCl)NCCCO1` (stereo not drawn) [Endoxan, reference compound], the “pancytopenia after combination chemotherapy, 2nd patient” value (from here on “pancytopenia”) in series [3] is given as “a pancytopenia which would persist for several months”. Take `COc1cccc2c1C(=O)c1c(O)c3c(c(O)c1C2=O)C[C@@](O)(C(=O)CO)C[C@@H]3O[C@H]1C[C@H](N)[C@H](O)[C@H](C)O1` [Adriamycine, reference compound]: in series [3], the “pancytopenia” value is listed as “a pancytopenia which would persist for several months”. For the compound `O=c1[nH]cc(F)c(=O)[nH]1` [5-fluoro-uracil, reference compound], the “pancytopenia” value in series [3] is recorded as “a pancytopenia which would persist for several months”.
